{"source": "patent US20040086500A1", "about": "“Rh116 polypeptides and its fragments and polynucleotides encoding said polypeptides and therapeutic uses” (priority 2000, published 2004)", "key": {"RH116 messenger RNA": {"tested_on": "RH116 messenger RNA", "experiment": "Semiquantitative RT-PCR of RH116 mRNA in CD8-depleted PBMCs of HIV-1 infected patients", "assay_type": "cell-based, human", "conditions": "for maximum mean inhibition of expression of the RH116 messenger RNA: murabutide 10 μg/ml", "excerpt": "Venous blood is collected from patients sero-positive for HIV-1 and peripheral blood mononuclear cells (PBMCs) are isolated by centrifugation on Ficoll-Hypaque (AMERSHAM PHARMACIA BIOTECH, Uppsala, Sweden). The cells are washed carefully in order to remove the platelets and are depleted of CD8+ cells using electro-magnetic beads covered with an anti-CD8 antibody (DYNAL, Oslo, Norway). The depleted PBMCs obtained using the manufacturer's protocol contain less than 3% of CD8+ cells after analysis by flow cytometry. […]. Next, the PBMCs are cultured and then recovered in the presence or absence of murabutide (N-acetylmuramyl-L-alanyl-D-glutamine-n-butyl ester) (provided by ISTAC SA, Lille, France) (10 μg/ml) and interleukin 2 (IL-2) (10 μg/ml) for 6 or 24 hours.\n(§1) The total cellular RNA extracted using the RNA plus kit (Q-BIOgene, Illkirch, France) is pretreated with DNAse I. Synthesis of the first strand on the polyA+ RNA was primed with a p(dT)15 primer (BOERHINGER MANNHEIM, ROCHE DIAGNOSTICS, France) and carried out with the reverse transcriptase derived from the Moloney murine leukemia virus (M-MLV) (PROMEGA, Madison, Calif., USA) (1 hour at 37° C., 3 min at 92° C.). The resulting cDNA is then subjected to 25 to 35 repeat amplification cycles with the AmpliTaq Gold polymerase (APPLIED BIOSYSTEMS). PCR amplification of the GAPDH sequences is carried out in order to obtain an internal control. […]\nPBMCs of patients (P) infected with HIV or of control healthy donors (C) are isolated, depleted of CD8+ lymphocytes (Dynabeads, Dynal) and stimulated with phytohemagglutinin, PHA (5 μg/ml), for 3 days. […] The number of amplification cycles was determined beforehand (35 cycles). The amplified fragments are visualized on an agarose gel (1%) in the presence of ethidium bromide, and then quantified using the Imager master program (Pharmacia). […]"}, "[1]": {"tested_on": "PBMCs of CD8 lymphocyte-depleted patients", "assay_type": "cell-based, human", "excerpt": "Specifically, MB inhibits by 70 to 100% the level of HIV viral protein p24 in the culture supernatants. This effect correlates with the level of expression of viral messenger RNAs (nonspliced and single-spliced)."}, "[2]": {"conditions": "in vivo; cited from earlier work"}, "RH116 gene": {"tested_on": "RH116 gene", "experiment": "Semiquantitative RT-PCR of RH116 gene expression in PBMCs of healthy donors", "assay_type": "cell-based, human", "conditions": "10 healthy controls, in particular after 6 hours, 10 μg/ml", "experimental": "as §1\nPBMCs of patients (P) infected with HIV or of control healthy donors (C) are isolated, depleted of CD8+ lymphocytes (Dynabeads, Dynal) and stimulated with phytohemagglutinin, PHA (5 μg/ml), for 3 days. […] The number of amplification cycles was determined beforehand (35 cycles). The amplified fragments are visualized on an agarose gel (1%) in the presence of ethidium bromide, and then quantified using the Imager master program (Pharmacia). […] The results are then expressed as % increase or % inhibition of expression of the gene compared with the untreated cells. […]"}, "[3]": {"tested_on": "human immunodeficiency virus (HIV)", "conditions": "macrophages, dendritic cells, PBMCs of infected patients; cited from earlier work"}}, "note": "Entries after “also recorded” stand apart in the source; their conditions may differ."}
{"substance": "N-acetylmuramyl-L-alanyl-D-glutamine-n-butyl ester [murabutide]", "values": [{"measurement": "expression of the RH116 gene compared with untreated cells", "setting": "RH116 messenger RNA; 12 patients, 6 or 24 h, 10 μg/ml", "value": "significant inhibition"}, {"measurement": "maximum mean inhibition of expression of the RH116 messenger RNA", "setting": "RH116 messenger RNA; 6 hours, patient No. 5", "value": 90, "unit": "%"}, {"measurement": "maximum mean inhibition of expression of the RH116 messenger RNA", "setting": "RH116 messenger RNA; 24 hours, patient No. 3", "value": 57, "unit": "%"}, {"measurement": "number of live cells (lack of toxicity)", "setting": "[1]", "value": "remain unchanged"}, {"measurement": "clinical tolerance", "setting": "[2]", "value": "good clinical tolerance"}, {"measurement": "inflammatory reactions", "setting": "[2]", "value": "does not induce inflammatory reactions"}, {"measurement": "pyrogenicity", "setting": "[2]", "value": "not pyrogenic"}, {"measurement": "toxicity in clinical studies", "setting": "[2]", "value": "has not shown severe toxicity"}, {"measurement": "expression of the RH116 gene compared with untreated cells", "setting": "RH116 gene", "value": "increases the level of expression; also recorded: very significant increase"}, {"measurement": "HIV replication", "setting": "[3]", "value": "inhibits"}]}
